According to PubChem BioAssay AID256 (DTP/NCI, 2004):
Where “and” joins values, the source holds several entries; their conditions need not be identical. Identical values can stand only once. Toxic doses and inconclusive results are not listed. Rule for the calls: active = survival T/C of 150% or more; inactive = T/C below 125% in these data.

Test system: CD2F1 mice, L1210 leukemia ip, survival T/C
Assay: NCI In Vivo Anticancer Drug Screen. Data for tumor model L1210 Leukemia (intraperitoneal) in CD2F1 (CDF1) mice
Details: endpoint: mean survival time, higher = longer survival
Outline: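 Mice carrying a transplanted tumor received test compound or vehicle alone. The value is the measurement in the treated group divided by that in the vehicle-treated control group.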

[1] = dose: 100.0 mg/kg/injection, schedule: Q01DX001 (ip), vehicle: saline with Tween-80
[2] = dose: 100.0 mg/kg/injection, schedule: Q04DX002 (ip), vehicle: saline with Tween-80
[3] = dose: 200.0 mg/kg/injection, schedule: Q01DX001 (ip), vehicle: saline with Tween-80
[4] = dose: 200.0 mg/kg/injection, schedule: Q04DX002 (ip), vehicle: saline with Tween-80
[5] = dose: 400.0 mg/kg/injection, schedule: Q04DX002 (ip), vehicle: saline with Tween-80
[6] = dose: 100.0 mg/kg/injection, schedule: Q01DX009 (ip), vehicle: saline with Tween-80
[7] = dose: 200.0 mg/kg/injection, schedule: Q01DX009 (ip), vehicle: saline with Tween-80
[8] = dose: 400.0 mg/kg/injection, schedule: Q01DX009 (ip), vehicle: saline with Tween-80
[9] = dose: 50.0 mg/kg/injection, schedule: Q01DX009 (ip), vehicle: other
[10] = dose: 100.0 mg/kg/injection, schedule: Q01DX009 (ip), vehicle: other
[11] = dose: 200.0 mg/kg/injection, schedule: Q01DX009 (ip), vehicle: other
[12] = dose: 100.0 mg/kg/injection, schedule: Q04DX003 (ip), vehicle: saline with Tween-80
[13] = dose: 200.0 mg/kg/injection, schedule: Q04DX003 (ip), vehicle: saline with Tween-80
[14] = dose: 100.0 mg/kg/injection, schedule: Q01DX001 (ip), vehicle: saline
[15] = dose: 200.0 mg/kg/injection, schedule: Q01DX001 (ip), vehicle: saline
[16] = dose: 400.0 mg/kg/injection, schedule: Q01DX001 (ip), vehicle: saline
[17] = dose: 100.0 mg/kg/injection, schedule: Q04DX003 (ip), vehicle: saline
[18] = dose: 200.0 mg/kg/injection, schedule: Q04DX003 (ip), vehicle: saline
[19] = dose: 400.0 mg/kg/injection, schedule: Q04DX003 (ip), vehicle: saline with Tween-80

Measured: T/C

Nc1ccc(-c2ccc(C(=O)O)cc2)cc1
inactive: [1] 104 % of control and 108 % of control | [2] 101 % of control and 107 % of control | [3] 93 % of control and 98 % of control | [4] 95 % of control and 96 % of control | [5] 87 % of control

Cc1cccc(CN(C)C)n1
inactive: dose: 100.0 mg/kg/injection, schedule: Q04DX002 (ip), vehicle: saline 105 % of control

COC1CCC(/C(C#N)=C/C2CCC(N(C)C)CC2)CC1 (stereo not drawn)
inactive: [6] 89 % of control | [7] 100 % of control | [8] 96 % of control

O=C1c2ccccc2C(=O)c2c(O)c(CCCN3C(=O)c4ccccc4C3=O)cc(O)c21
inactive: dose: 12.5 mg/kg/injection, schedule: Q01DX009 (ip), vehicle: other 89 % of control | dose: 25.0 mg/kg/injection, schedule: Q01DX009 (ip), vehicle: other 87 % of control | [9] 87 % of control | [10] 89 % of control | [11] 97 % of control

COc1ccc(C(=O)C(O)c2ccccc2)cc1 (stereo not drawn)
inactive: dose: 100.0 mg/kg/injection, schedule: Q04DX003 (ip), vehicle: other 97 % of control | dose: 200.0 mg/kg/injection, schedule: Q04DX003 (ip), vehicle: other 92 % of control | dose: 400.0 mg/kg/injection, schedule: Q04DX003 (ip), vehicle: other 92 % of control

CCN(CC)Cc1cc(Nc2ncnc3[nH]c(C)c(C)c23)ccc1O
inactive: dose: 50.0 mg/kg/injection, schedule: Q04DX002 (ip), vehicle: saline with Tween-80 89 % of control | [1] 97 % of control | [3] 100 % of control | [4] 92 % of control

OB(O)Oc1ccc(Br)cc1
inactive: [9] 95 % of control | [10] 91 % of control | [11] 102 % of control

CCOC(=O)NC(C#N)=C(Cl)Cl
inactive: [2] 114 % of control | [4] 88 % of control | [5] 100 % of control

COc1cc2c(c3ccccc13)CCCC2=O
inactive: [6] 95 % of control | [7] 92 % of control | [8] 97 % of control

O=c1cc(-c2ccccc2)nc(N[N+](=O)[O-])[nH]1
inactive: [12] 100 % of control | [13] 94 % of control

Cn1nc(C#N)c2ccccc21
inactive: [14] 100 % of control | [15] 102 % of control | [16] 103 % of control

O=C1CC2C3C=CC(C12)C1C(=O)OC(=O)C31 (stereo not drawn)
inactive: [17] 107 % of control | [18] 98 % of control | dose: 400.0 mg/kg/injection, schedule: Q04DX003 (ip), vehicle: saline 91 % of control

O=C(CCCN1CCN2Cc3[nH]c4ccccc4c3CC2C1)c1ccc(F)cc1 (stereo not drawn)
inactive: dose: 25.0 mg/kg/injection, schedule: Q04DX003 (ip), vehicle: saline with Tween-80 101 % of control | dose: 50.0 mg/kg/injection, schedule: Q04DX003 (ip), vehicle: saline with Tween-80 107 % of control | [12] 103 % of control

CCOC(=O)CCC(NC(=O)OCCNCCCl)C(=O)OCC (stereo not drawn)
inactive: dose: 40.0 mg/kg/injection, schedule: Q01DX Z (ip), vehicle: saline 100 % of control | dose: 80.0 mg/kg/injection, schedule: Q01DX Z (ip), vehicle: saline 96 % of control | dose: 160.0 mg/kg/injection, schedule: Q01DX Z (ip), vehicle: saline 103 % of control | dose: 320.0 mg/kg/injection, schedule: Q01DX Z (ip), vehicle: saline 117 % of control

Cc1cc(C)c2c(C#N)cn(-c3cccc(Cl)c3)c2n1
inactive: [17] 97 % of control

CCC(C)(CC(=O)OC)C(=O)OC (stereo not drawn)
inactive: [14] 108 % of control | [15] 104 % of control | [16] 108 % of control

NC(=O)c1cn(C2CC(O)C(CO)O2)c2ncnc(N)c12 (stereo not drawn)
inactive: dose: 0.03 mg/kg/injection, schedule: Q01DX009 (ip), vehicle: water 93 % of control | dose: 0.06 mg/kg/injection, schedule: Q01DX009 (ip), vehicle: water 93 % of control | dose: 0.13 mg/kg/injection, schedule: Q01DX009 (ip), vehicle: water 94 % of control | dose: 0.25 mg/kg/injection, schedule: Q01DX009 (ip), vehicle: water 98 % of control | dose: 0.5 mg/kg/injection, schedule: Q01DX009 (ip), vehicle: water 102 % of control | dose: 1.0 mg/kg/injection, schedule: Q01DX009 (ip), vehicle: water 98 % of control | dose: 2.0 mg/kg/injection, schedule: Q01DX009 (ip), vehicle: water 100 % of control | dose: 4.0 mg/kg/injection, schedule: Q01DX009 (ip), vehicle: water 104 % of control | dose: 5.0 mg/kg/injection, schedule: Q01DX009 (ip), vehicle: water 108 % of control | dose: 8.0 mg/kg/injection, schedule: Q01DX009 (ip), vehicle: water 100 % of control | dose: 10.0 mg/kg/injection, schedule: Q01DX009 (ip), vehicle: water 99 % of control | dose: 16.0 mg/kg/injection, schedule: Q01DX009 (ip), vehicle: water 98 % of control | dose: 20.0 mg/kg/injection, schedule: Q01DX009 (ip), vehicle: water 104 % of control | dose: 40.0 mg/kg/injection, schedule: Q01DX009 (ip), vehicle: water 101 % of control | dose: 80.0 mg/kg/injection, schedule: Q01DX009 (ip), vehicle: water 103 % of control | dose: 160.0 mg/kg/injection, schedule: Q01DX009 (ip), vehicle: water 104 % of control

CC(C#N)(Cc1ccccc1)Nc1ccccc1 (stereo not drawn)
inactive: [12] 97 % of control | [13] 91 % of control

O=C(O)CCNc1ccc2c(c1)B(O)OC2
inactive: [12] 98 % of control | [13] 101 % of control | [19] 98 % of control

CC1=NCC[N-]C(C)(C)CC(C)=NCC[N-]C(C)(C)C1.[Ni+2].[O-][Cl+3]([O-])([O-])O
inactive: [17] 96 % of control | [18] 97 % of control

CC(N)(CC(=O)O)C(=O)O (stereo not drawn)
inactive: dose: 100.0 mg/kg/injection, schedule: Q01DX009 (ip), vehicle: saline sonified 97 % of control | [12] 92 % of control | dose: 200.0 mg/kg/injection, schedule: Q01DX009 (ip), vehicle: saline sonified 95 % of control | [13] 97 % of control | dose: 400.0 mg/kg/injection, schedule: Q01DX009 (ip), vehicle: saline sonified 96 % of control | [19] 91 % of control

NC(=O)c1cc2c3ccccc3ncc2c2ccccc12
inactive: [12] 101 % of control | [13] 97 % of control | [19] 94 % of control

CSc1nc(C)cc(=O)[nH]1
inactive: [2] 94 % of control | [4] 97 % of control | [5] 90 % of control

C=C(C)C1CCC2(C(=O)OC)CCC3(C)C(CCC4C5(C)CCC(=O)C(C)(C)C5CCC43C)C12 (stereo not drawn)
inactive: dose: 100.0 mg/kg/injection, schedule: Q01DX001 (ip), vehicle: Klucel (hydroxypropylcellulose) (HPC) 96 % of control | dose: 200.0 mg/kg/injection, schedule: Q01DX001 (ip), vehicle: Klucel (hydroxypropylcellulose) (HPC) 91 % of control | dose: 400.0 mg/kg/injection, schedule: Q01DX001 (ip), vehicle: Klucel (hydroxypropylcellulose) (HPC) 94 % of control

O=C(O)C1(C(=O)O)CC2(CCC2)C1
inactive: [14] 100 % of control | [15] 100 % of control | [16] 100 % of control

CCCC/C=C\C=C/CCCC
inactive: [1] 102 % of control | [3] 102 % of control | dose: 400.0 mg/kg/injection, schedule: Q01DX001 (ip), vehicle: saline with Tween-80 94 % of control
